Experimental data published in PubChem BioAssay (NCI).
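Step 1: Grow cells in 96-well plates. Step 2: Expose to compound for 48 hours at 5 concentrations. Step 3: Interpolate endpoints linearly; if unreached, use highest concentration. Definition used: TGI = concentration required for complete inhibition of growth.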

Columns and labels:
Test in all cases: NCI tumour cell line growth inhibition, 48 h
[1] = system: HL-60(TB) leukemia
[2] = system: SNB-75 CNS
[3] = system: PC-3 prostate
[4] = system: MDA-MB-231 breast
[5] = system: CAKI-1 renal
[6] = system: A549 NSCLC
[7] = system: HCC-2998 colon
[8] = system: HT29 colon
[9] = system: T-47D breast
[10] = system: A498 renal
[11] = system: ACHN renal
[12] = system: SNB-19 CNS
[13] = system: 786-0 renal
[14] = system: IGROV1 ovarian
[15] = system: KM12 colon
[16] = system: OVCAR-5 ovarian
[17] = system: NCI/ADR-RES ovarian
[18] = system: SK-MEL-2 melanoma
[19] = system: SW-620 colon

Compound	TGI [1]	TGI [2]	TGI [3]	TGI [4]	TGI [5]	TGI [6]	TGI [7]	TGI [8]	TGI [9]	TGI [10]	TGI [11]	TGI [12]	TGI [13]	TGI [14]	TGI [15]	TGI [16]	TGI [17]	TGI [18]	TGI [19]
Cc1ccc(N=N/C(=N/NC(=O)c2cc(Cl)ccc2O)c2ccc(N(CCC#N)CCC#N)cc2C)cc1	> 100 µM	86.8 µM	> 100 µM	> 100 µM	> 100 µM	> 100 µM	68.5 µM	60.6 µM	56.2 µM	49.5 µM	70.4 µM	> 100 µM	> 100 µM	> 100 µM	> 100 µM	> 100 µM	> 100 µM	68.4 µM	–
CCN(CC)c1ccc2cc(C(N)=O)c(=N)oc2c1	> 100 µM	> 100 µM	87.6 µM	> 100 µM	> 100 µM	> 100 µM	57.2 µM	> 100 µM	83.9 µM	> 100 µM	> 100 µM	> 100 µM	> 100 µM	80.7 µM	> 100 µM	> 100 µM	> 100 µM	54.1 µM	> 100 µM
O=C1C=Cc2c(Br)sc(Br)c21	58.7 µM	> 100 µM	49.7 µM	52.4 µM	41.1 µM	> 100 µM	29.2 µM	85.9 µM	81.8 µM	> 100 µM	57.7 µM	> 100 µM	> 100 µM	43.5 µM	> 100 µM	> 100 µM	> 100 µM	70.3 µM	43.7 µM
Cn1c2ccc([N+](=O)[O-])cc2c(=O)n1Cc1ccccc1F	> 100 µM	70.2 µM	> 100 µM	> 100 µM	> 100 µM	> 100 µM	> 100 µM	> 100 µM	> 100 µM	> 100 µM	> 100 µM	> 100 µM	> 100 µM	> 100 µM	> 100 µM	> 100 µM	76.3 µM	> 100 µM	> 100 µM
C=CC[C@H]1O[Si](C(C)(C)C)(C(C)(C)C)[C@H](C)[C@H]1C	> 100 µM	> 100 µM	> 100 µM	> 100 µM	> 100 µM	> 100 µM	> 100 µM	> 100 µM	> 100 µM	> 100 µM	> 100 µM	> 100 µM	> 100 µM	> 100 µM	> 100 µM	> 100 µM	> 100 µM	> 100 µM	> 100 µM
O=C(NC(=S)Nc1ccc(Br)cc1)c1ccc2c(c1)Sc1ccccc1S2	42.7 µM	29.2 µM	> 100 µM	38.2 µM	38.2 µM	48.6 µM	–	95.1 µM	33.4 µM	36.8 µM	34.2 µM	54.4 µM	30.6 µM	30.2 µM	74.8 µM	40.2 µM	55.9 µM	57.9 µM	> 100 µM
Cc1ccc(Nc2nc(=O)c3c4ccccc4n(C(=O)OC(C)(C)C)c3s2)cc1	59 µM	> 100 µM	> 100 µM	> 100 µM	66 µM	> 100 µM	–	> 100 µM	> 100 µM	> 100 µM	> 100 µM	> 100 µM	38.5 µM	> 100 µM	54.5 µM	48.3 µM	32.5 µM	59.2 µM	> 100 µM
N#CC(C#N)=C1C(=Cc2ccc(OCCCCCCCCCCSSCCCCCCCCCCOc3ccc(C=C4C(=C(C#N)C#N)c5ccccc5C4=C(C#N)C#N)cc3)cc2)C(=C(C#N)C#N)c2ccccc21	2.36 µM	> 100 µM	47.8 µM	> 100 µM	71.2 µM	31 µM	28.9 µM	34.1 µM	> 100 µM	48.5 µM	> 100 µM	–	41.7 µM	> 100 µM	78.1 µM	35.5 µM	38.8 µM	64 µM	52.1 µM
O=c1c2cccnc2n2n1Cc1ccccc1C2	> 100 µM	> 100 µM	> 100 µM	> 100 µM	> 100 µM	> 100 µM	> 100 µM	> 100 µM	> 100 µM	> 100 µM	> 100 µM	–	> 100 µM	> 100 µM	–	> 100 µM	> 100 µM	–	> 100 µM
N#Cc1cccc2c1Sc1ccccc1N2	> 100 µM	3.15 µM	> 100 µM	> 100 µM	> 100 µM	> 100 µM	> 100 µM	> 100 µM	> 100 µM	58.3 µM	> 100 µM	> 100 µM	67.2 µM	> 100 µM	> 100 µM	72.8 µM	> 100 µM	–	> 100 µM
C=C1C[C@@H]2CC[C@@]34CC5O[C@H]6C(O[C@H]7CC[C@H](CC(=O)O[C@@H]8[C@@H](C)[C@@H]9O[C@@H]%10C[C@]%11(C[C@@H]%12O[C@]%13(C[C@H](C)[C@@H]%14O[C@@H]%15CC(C(O)CO)O[C@@H]%15C[C@@H]%14O%13)C[C@H](C)[C@@H]%12O%11)O[C@@H]%10C[C@@H]9O[C@H]8CC8O[C@@H](CC[C@@H]1O2)C[C@@H](C)C8(O)CO)O[C@@H]7[C@@H]6O3)[C@H]5O4 (stereo partly drawn)	> 1 µM	> 1 µM	> 1 µM	> 1 µM	> 1 µM	> 1 µM	> 1 µM	–	> 1 µM	> 1 µM	> 1 µM	> 1 µM	> 1 µM	> 1 µM	> 1 µM	> 1 µM	> 1 µM	> 1 µM	> 1 µM
CSC1=C(C#N)C(=S)N=C(N)C1C(=O)Nc1ccc(C)cc1 (stereo not drawn)	> 100 µM	> 100 µM	> 100 µM	> 100 µM	> 100 µM	> 100 µM	> 100 µM	> 100 µM	> 100 µM	> 100 µM	–	> 100 µM	> 100 µM	> 100 µM	> 100 µM	> 100 µM	> 100 µM	> 100 µM	> 100 µM
